Assay results: ChEMBL document CHEMBL5214942, “Discovery of biphenyls bearing thiobarbiturate fragment by structure-based strategy as Mycobacterium tuberculosis protein tyrosine phosphatase B inhibitors” (Bioorg Med Chem, 2022)
In brackets after ≈: the same amount, converted by molar mass. Activity calls are given as the source filed them. The calls are words filed in the database; no cut-off is given here.

Columns and labels:
[1] = target: T1, Phosphotyrosine-protein phosphatase PTPB (Mycobacterium tuberculosis) (UniProt P96830); test: Inhibition of recombinant Mycobacterium tuberculosis H37Rv MptpB using pNPP as substrate incubated for 10 mins at 50 uM and measured by spectrophotometric method relative to control
T1 sequence (whole entry): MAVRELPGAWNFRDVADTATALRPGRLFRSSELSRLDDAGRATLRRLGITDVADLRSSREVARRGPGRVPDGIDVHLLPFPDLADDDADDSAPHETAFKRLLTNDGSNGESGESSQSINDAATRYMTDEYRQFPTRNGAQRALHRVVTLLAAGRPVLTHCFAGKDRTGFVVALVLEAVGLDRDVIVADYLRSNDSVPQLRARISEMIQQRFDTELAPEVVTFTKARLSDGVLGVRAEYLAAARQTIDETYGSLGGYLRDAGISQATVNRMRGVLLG

[2] = target: T2, Phosphotyrosine-protein phosphatase PTPB (Mycobacterium tuberculosis, UniProt P96830); test: Inhibition of recombinant Mycobacterium tuberculosis H37Rv MptpB using pNPP as substrate incubated for 10 mins and measured by spectrophotometric method
T2 sequence (P96830 whole entry): T1 sequence (whole entry)

[3] = test system: Mycobacterium tuberculosis; test: Antimycobacterial activity against Mycobacterium tuberculosis H37Rv measured by microplate alamar blue assay; assay type: functional
[4] = Cytotoxicity against African green monkey Vero cells after 48 hrs by MTT assay; assay type: toxicity, cell-based; details: African green monkey (Chlorocebus sabaeus)
[5] = Cytotoxicity against mouse J774.A1 cells after 48 hrs by MTT assay; assay type: toxicity, cell-based
[6] = target: T3, Low molecular weight protein-tyrosine phosphatase A (Mycobacterium tuberculosis) (UniProt P9WIA1); test: Inhibition of recombinant Mycobacterium tuberculosis H37Rv MptpA using pNPP as substrate at 50 uM incubated for 10 mins and measured by spectrophotometric method relative to control
T3 sequence (whole entry): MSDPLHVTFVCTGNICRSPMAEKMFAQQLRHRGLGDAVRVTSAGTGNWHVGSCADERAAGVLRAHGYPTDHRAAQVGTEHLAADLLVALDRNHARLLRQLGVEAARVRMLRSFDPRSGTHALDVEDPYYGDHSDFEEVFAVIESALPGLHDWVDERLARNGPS

[7] = target: T4, Tyrosine-protein phosphatase non-receptor type 1 (Homo sapiens) (UniProt P18031); test: Inhibition of recombinant human PTP1B using pNPP as substrate preincubated for 5 mins followed by substrate addition assessed as reduction in p-nitrophenol release at 50 uM relative to control
T4 sequence (whole entry): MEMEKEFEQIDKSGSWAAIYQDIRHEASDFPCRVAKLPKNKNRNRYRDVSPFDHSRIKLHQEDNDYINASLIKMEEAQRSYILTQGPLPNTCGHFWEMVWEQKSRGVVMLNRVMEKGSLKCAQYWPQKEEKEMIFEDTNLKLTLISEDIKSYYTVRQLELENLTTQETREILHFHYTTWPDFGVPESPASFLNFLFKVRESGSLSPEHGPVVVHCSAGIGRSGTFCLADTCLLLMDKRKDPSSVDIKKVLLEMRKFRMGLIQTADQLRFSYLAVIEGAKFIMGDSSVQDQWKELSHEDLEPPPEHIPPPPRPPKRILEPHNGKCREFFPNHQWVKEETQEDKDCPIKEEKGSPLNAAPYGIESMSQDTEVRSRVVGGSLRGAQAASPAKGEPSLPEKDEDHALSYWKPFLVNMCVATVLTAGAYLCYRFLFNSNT

[8] = target: T5, Tyrosine-protein phosphatase non-receptor type 1 (Homo sapiens, UniProt P18031); test: Inhibition of recombinant human PTP1B using pNPP as substrate preincubated for 5 mins followed by substrate addition assessed as reduction in p-nitrophenol release
T5 sequence (P18031 whole entry): T4 sequence (whole entry)

[9] = target: T6, Low molecular weight protein-tyrosine phosphatase A (Mycobacterium tuberculosis, UniProt P9WIA1); test: Inhibition of recombinant Mycobacterium tuberculosis H37Rv MptpA using pNPP as substrate incubated for 10 mins and measured by spectrophotometric method
T6 sequence (P9WIA1 whole entry): T3 sequence (whole entry)

[10] = target: T2, Phosphotyrosine-protein phosphatase PTPB; test: Non-competitive inhibition of recombinant Mycobacterium tuberculosis H37Rv MptpB using pNPP as substrate
[11] = test system: Mycobacterium tuberculosis; test: Antimycobacterial activity against Mycobacterium tuberculosis infected in mouse J774.A1 cells assessed as reduction in intracellular bacterial burden at 5 ug/ml measured by colony counting method; assay type: functional; design: scale not given: the % may be the effect or the level left; details: dose 5 µg/ml
[12] = test system: Mycobacterium tuberculosis; test: Antimycobacterial activity against Mycobacterium tuberculosis infected in mouse J774.A1 cells assessed as reduction in intracellular bacterial burden at 1 to 10 ug/ml measured by colony counting method; assay type: functional, organism-based; details: dose 1-10 µg/ml

SMILES | inhibition [1] | IC50 [2] | MIC [3] | IC50 at 48 h [4] | IC50 at 48 h [5] | further results
COc1ccc(-c2ccc(OCc3ccc(Cl)cc3)c(C=C3C(=O)NC(=S)NC3=O)c2)cc1 | 42.7% |  |  |  |  | 
O=C1NC(=S)NC(=O)C1=Cc1cc(OCc2ccc(Cl)cc2)cc(-c2cc(Cl)c(O)c(Cl)c2)c1 | 91.6% | 4.7 µM | > 32 µg/mL | > 64 µg/mL | 39.9 µg/mL (≈ 74.7 µM) | inhibition [6]: 39.7%; inhibition [7]: 93.7%; IC50 [8]: 7.81 µM
O=C1NC(=S)NC(=O)C1=Cc1ccc(OCc2ccc(Cl)cc2)cc1-c1cc(Cl)c(O)c(Cl)c1 | 95% | 3.62 µM | > 32 µg/mL | > 64 µg/mL | 57 µg/mL (≈ 107 µM) | inhibition [6]: 49%; inhibition [7]: 78.6%; IC50 [8]: 34.1 µM
O=C1NC(=S)NC(=O)C1=Cc1cc(-c2ccc3occc(=O)c3c2)ccc1OCc1ccc(Cl)cc1 | 73% |  |  |  |  | 
O=C1NC(=O)C(=Cc2cc(-c3cc(Cl)c(O)c(Cl)c3)ccc2OCc2ccc(Cl)cc2)C(=O)N1 | 16.2% |  |  |  |  | 
O=C1NC(=S)NC(=O)C1=Cc1cc(-c2cc(Cl)c(O)c(Cl)c2)ccc1OCc1ccccc1 | 95.4% | 3.81 µM | 25.1 µg/mL (≈ 50.2 µM) | > 64 µg/mL | 3.44 µg/mL (≈ 6.89 µM) | inhibition [6]: 14.6%; inhibition [7]: 87.7%; IC50 [8]: 27.3 µM
O=C1NC(=S)NC(=O)C1=Cc1ccc(-c2cc(Cl)c(O)c(Cl)c2)c(OCc2ccc(Cl)cc2)c1 | 75.2% |  |  |  |  | 
CN1C(=O)C(=Cc2cc(-c3cc(Cl)c(O)c(Cl)c3)ccc2OCc2ccc(Cl)cc2)C(=O)N(C)C1=S | 87% | 14.1 µM |  |  |  | 
O=C1NC(=S)NC(=O)C1=Cc1cc(-c2ccc(O)c(Cl)c2)ccc1OCc1ccc(Cl)cc1 | 72.7% |  |  |  |  | 
O=C1NC(=S)NC(=O)C1=Cc1c(OCc2ccc(Cl)cc2)cccc1-c1cc(Cl)c(O)c(Cl)c1 | 45.5% |  |  |  |  | 
O=C1NC(=S)NC(=O)C1=Cc1cc(-c2ccccc2)ccc1OCc1ccc(Cl)cc1 | 43.9% |  |  |  |  | 
O=C1NC(=S)NC(=O)C1=Cc1cc(-c2cc(Cl)c(O)c(Cl)c2)ccc1OCc1ccc(Cl)cc1 | 95.9% | 1.18 µM | > 32 µg/mL | > 64 µg/mL | 13 µg/mL (≈ 24.4 µM) | inhibition [6]: 86.4%; IC50 [9]: 8.97 µM; inhibition [7]: 98.3%; IC50 [8]: 5.16 µM; Ki [10]: 1.01 µM; Activity [11]: 90%; Activity [12]: Active
O=C1NC(=S)NC(=O)C1=Cc1cc(Br)ccc1OCc1ccc(Cl)cc1 | 63% | 22.4 µM |  |  |  | 
Cc1cc(-c2ccc(OCc3ccc(Cl)cc3)c(C=C3C(=O)NC(=S)NC3=O)c2)cc(C)c1O | 59.2% |  |  |  |  | 
O=C1NC(=S)NC(=O)C1=Cc1cc(-c2ccc(C(F)(F)F)cc2)ccc1OCc1ccc(Cl)cc1 | 86.4% | 3.82 µM | > 32 µg/mL | > 64 µg/mL | 14.8 µg/mL (≈ 28.6 µM) | inhibition [6]: 74.2%; IC50 [9]: 20 µM; inhibition [7]: 81.4%; IC50 [8]: 3.93 µM
O=C1NC(=S)NC(=O)C1=Cc1cc(-c2ccc(Cl)cc2)ccc1OCc1ccc(Cl)cc1 | 77.5% |  |  |  |  | 
O=C1NC(=S)NC(=O)C1=Cc1ccc(OCc2ccc(Cl)cc2)c(-c2cc(Cl)c(O)c(Cl)c2)c1 | 84.4% | 5.95 µM | > 32 µg/mL | > 64 µg/mL | 13.9 µg/mL (≈ 26 µM) | inhibition [6]: 69.6%; inhibition [7]: 98.2%; IC50 [8]: 3.43 µM
CN1C(=O)C(=Cc2cc(-c3cc(Cl)c(O)c(Cl)c3)ccc2OCc2ccc(Cl)cc2)C(=O)N(C)C1=O | 51.9% |  |  |  |  | 
COC(=O)c1ccc(-c2ccc(OCc3ccc(Cl)cc3)c(C=C3C(=O)NC(=S)NC3=O)c2)cc1 | 63.3% |  |  |  |  | 
O=C1NC(=S)NC(=O)C1=Cc1cc(-c2ccc(O)c(F)c2)ccc1OCc1ccc(Cl)cc1 | 65% |  |  |  |  | 
O=C(C(c1ccccc1)S(=O)(=O)O)N1CCCC2CCCCC21 (configuration not stated) |  | 0.018 µM |  |  |  | 
O=C1NC(=S)NC(=O)C1=Cc1cc(-c2ccc(OC(F)(F)F)cc2)ccc1OCc1ccc(Cl)cc1 | 65% |  |  |  |  | 
C/C=C(\C)[C@@H]1C(C)=C[C@@H]2CC(C)=CC[C@H]2[C@@H]1/C=C/C=C(\C)[C@@H](O)[C@@H](C)C(=O)O |  | 1.05 µM |  |  |  | 
CO[C@H]1/C=C/O[C@@]2(C)Oc3c(C)c(O)c4c(O)c(c(/C=N/N5CCN(C)CC5)c(O)c4c3C2=O)NC(=O)/C(C)=C\C=C\[C@H](C)[C@H](O)[C@@H](C)[C@@H](O)[C@@H](C)[C@H](OC(C)=O)[C@@H]1C [RIFAMPIN] |  |  | 0.037 µg/mL (≈ 0.045 µM) | > 64 µg/mL | > 64 µg/mL | 
Cc1onc(C(=O)O)c1-c1cccc(-c2cc(Cl)c(O)c(Cl)c2)c1 |  | 2.98 µM |  |  |  | 
NNC(=O)c1ccncc1 [ISONIAZID] |  |  | 0.072 µg/mL (≈ 0.525 µM) | > 64 µg/mL | > 64 µg/mL | 
O=C1NC(=S)NC(=O)C1=Cc1cc(-c2cc3ccccc3s2)ccc1OCc1ccc(Cl)cc1 | 57.5% |  |  |  |  | 
O=C1NC(=S)NC(=O)C1=Cc1cc(-c2cc(Cl)c(O)c(Cl)c2)ccc1OCc1cc(F)cc(F)c1 | 89.1% | 5.32 µM | > 32 µg/mL | > 64 µg/mL | 15.4 µg/mL (≈ 28.8 µM) | inhibition [7]: 92.3%; IC50 [8]: 6.28 µM
